Laboratory results as given in the METLIN SMRT retention time set (Domingo-Almenara et al. 2019).

Assay: gradient 5% acetonitrile 3 min, to 50% in 2 min, to 85% in 15 min, held 3 min, 100 µL/min
Settings: column: Zorbax Extend-C18 2.1 x 50 mm; eluents: water / acetonitrile, 0.1% formic acid
Procedure, shortened: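 Over 3 months, pure standards in mixtures of ~100 molecules were run by HPLC coupled to a quadrupole time-of-flight mass spectrometer in positive and negative ionization mode. The column was a Zorbax Extend-C18 (2.1 × 50 mm, 1.8 μm) at 100 μL/min, eluted with water and acetonitrile each holding 0.1% formic acid, with 40 μL dead and 900 μL dwell volumes. Retention time was determined from adduct peaks chosen by software and checked manually.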

For O=S(=O)(Cc1ccccc1Cl)N1CCC(CN2CCCCCC2)CC1, the RP-LC retention time was 675 s.

Work on O=C1NC2(CCN(C(=O)c3ccccc3)CC2)N=C1c1cccc(F)c1 yielded an RP-LC retention time of 748 s.

Work on O=C(NCC1CCN(Cc2cccs2)CC1)C(=O)Nc1ccc(C(F)(F)F)cc1 yielded an RP-LC retention time of 603 s.

Compound CCOc1ccc(-c2csc(C)n2)cc1S(=O)(=O)N1CCN(c2ccc(OC)cc2)CC1 has an RP-LC retention time of 1060 s.

For CCOc1ccc(-c2nc(-c3ccc4c(c3)N(CC)C(=O)CO4)no2)cc1, the RP-LC retention time was 1240 s.

Work on Cc1ccc(Nc2nc(C)cc(N3CCN(S(=O)(=O)c4cc(F)ccc4C)CC3)n2)cc1 yielded an RP-LC retention time of 823 s.

Compound CCN1C(=O)c2cccnc2Sc2cc(NC(=O)c3ccc(F)cc3Cl)ccc21 has an RP-LC retention time of 852 s.

In the case of COc1ccc(-c2nc(CN(c3ccccc3)S(=O)(=O)c3cccs3)c(C)o2)cc1OC, the RP-LC retention time is reported as 1040 s.

With Cc1cc(C(=O)NC2CC2)c2cccc(Cl)c2n1 the RP-LC retention time was 716 s.

Work on Cc1nnc2cc(N3CCN(Cc4cn[nH]c4-c4cccs4)CC3)cnn12 yielded an RP-LC retention time of 543 s.

Compound CC(C)(C)c1ccc2c(c1)N(Cc1nc(-c3cccc(F)c3)no1)C(=O)CO2 has an RP-LC retention time of 1240 s.

In the case of COc1ccc(S(=O)(=O)CCc2noc(C(=O)N3CCC4(CC3)OCCO4)n2)cc1, the RP-LC retention time is reported as 763 s.

With CC1=C(c2ccc(F)cc2)S(=O)(=O)N=C1N1CCC(NC(=O)C2CCCO2)CC1 (centres undefined) the RP-LC retention time was 716 s.

Work on Cc1ccc(C)c(NC(=O)Cn2cccc2-c2nnc(C3CCC3)o2)c1 yielded an RP-LC retention time of 977 s.

In the case of CCOC(=O)C1CCC(CNC(=O)Nc2cccn3cnnc23)CC1 (centres undefined), the RP-LC retention time is reported as 654 s.

Compound COc1ccc(-c2nc(CNC(=O)c3ccc(-n4cccn4)nn3)cs2)cc1 has an RP-LC retention time of 855 s.

Compound CCN1CCN(C(=O)c2ccc(-c3ccc4c(c3)CCN4C(C)=O)cc2)CC1 has an RP-LC retention time of 607 s.

Cc1oc2ncnc(N3CCOCC3)c2c1C(=O)N1CCN(c2ccccn2)CC1 gave an RP-LC retention time of 567 s.

For CCOc1ccc(CCNC(=O)c2cc3sc(Cl)cc3n2C)cc1OCC, the RP-LC retention time was 1110 s.

With CC(C)CC(C(=O)Nc1cccc(O)c1)N1C(=O)c2ccccc2C1=O (centres undefined) the RP-LC retention time was 823 s.

In the case of CC1(C(=O)NCc2ccccc2)CN(S(C)(=O)=O)CC(=O)N1Cc1ccc(Cl)cc1 (centres undefined), the RP-LC retention time is reported as 858 s.

CC(Oc1ccccc1F)C(=O)NCCOc1ccc(-c2ccccn2)nn1 (centres undefined) showed an RP-LC retention time of 612 s.

For O=C(NC1CCN(c2cc(-c3cccs3)[nH]n2)C1)c1ccc(F)c(Cl)c1 (centres undefined), the RP-LC retention time was 797 s.

With CCOc1cc(C2c3c(oc4ccccc4c3=O)C(=O)N2CCCN(C)C)ccc1O (centres undefined) the RP-LC retention time was 989 s.

With CN(CCc1noc(COc2ccccc2F)n1)C(=O)c1ccccc1F the RP-LC retention time was 889 s.

CCOC(=O)c1c(S(=O)(=O)N2CCC(C(=O)N3CCc4ccccc43)CC2)c(C)n(C)c1C gave an RP-LC retention time of 913 s.

Compound COc1ccc(Cl)cc1NC(=O)NCCC1CCN(S(=O)(=O)c2ccccc2)CC1 has an RP-LC retention time of 1010 s.

Compound Cc1ccc2[nH]cc(CCNC(=O)C3CCCN(c4nccc(C)n4)C3)c2c1 (centres undefined) has an RP-LC retention time of 741 s.

For O=S(=O)(Nc1ccc(Cn2cncn2)cc1)c1ccc(F)c(F)c1, the RP-LC retention time was 721 s.

Compound Cc1ccc(CNC2=NCCNC23CCN(S(=O)(=O)c2ccccc2C)CC3)cc1 has an RP-LC retention time of 738 s.

With CCCN(CC1CCOC1)C(=O)Nc1cc(F)ccc1F (centres undefined) the RP-LC retention time was 844 s.

Cc1nc2ncnn2c(N2CCOCC2)c1C gave an RP-LC retention time of 625 s.

Work on Cc1cc(C(=O)NCCN2CCOCC2)c2cc(Br)ccc2n1 yielded an RP-LC retention time of 582 s.

COc1ccc(CNC(=O)c2nnn(Cc3nc(-c4ccccc4)oc3C)c2N)cc1OC gave an RP-LC retention time of 859 s.

Work on O=C(NC(NC(=O)c1ccccc1)c1ccccc1)c1ccccc1 yielded an RP-LC retention time of 765 s.

For CCOc1ccc(NC(=O)CN2C(=O)CC(c3cccs3)=Nc3ccccc32)cc1, the RP-LC retention time was 951 s.

For Cc1cc(N2CCC(NS(=O)(=O)c3ccccc3F)C2=O)ccc1F (centres undefined), the RP-LC retention time was 900 s.

With Cn1c(=O)n(C)c2cc(N3CCCCC3)c(NC(=O)COc3ccc(Cl)cc3)cc21 the RP-LC retention time was 1040 s.

With Cc1nc2scc(C)n2c(=O)c1S(=O)(=O)N1CCN(c2ccccn2)CC1 the RP-LC retention time was 584 s.

CC1(C(=O)NCc2ccccc2)CN(S(C)(=O)=O)CC(=O)N1c1cccc(F)c1 (centres undefined) showed an RP-LC retention time of 710 s.

With Cc1ccccc1NC(=O)CN1C(=O)CCc2cc(Br)ccc21 the RP-LC retention time was 884 s.

With COc1ccc(CNC(=O)C2CCCN(c3nc4ccsc4c(=O)n3-c3ccc(F)cc3)C2)cc1 (centres undefined) the RP-LC retention time was 857 s.

Work on Cc1ccc(Cl)cc1N1C(=O)CN(S(C)(=O)=O)CC1(C)C(=O)NCc1ccccc1 (centres undefined) yielded an RP-LC retention time of 854 s.

In the case of O=C(CCCCn1c(=O)c2ccccc2n(Cc2ccccc2)c1=O)NCc1cccs1, the RP-LC retention time is reported as 847 s.

With Cc1ccc(-c2nc(-c3cccc(-c4ccn[nH]4)c3)no2)c(C)c1 the RP-LC retention time was 1150 s.

Work on CCCNC(=O)N1c2ccccc2CC1c1nc(C(C)C)no1 (centres undefined) yielded an RP-LC retention time of 910 s.

Compound CCN1CCN(c2cc(C(=O)O)c3cc(NC(=O)C(C)(C)C)ccc3n2)CC1 has an RP-LC retention time of 564 s.

Cc1ccc(C(=O)NCc2ccc3c(c2)CCCN3C(=O)C2CCC2)c(C)c1 showed an RP-LC retention time of 941 s.

CC(=O)N1CCCc2ccc(NC(=O)COc3ccc(F)cc3)cc21 gave an RP-LC retention time of 798 s.

CCOCCOC1CCN(C(=O)Nc2ccc3c(c2)OCCO3)CC1 showed an RP-LC retention time of 708 s.

Compound CC(C)Oc1ccc(-c2noc(CN3N=NC4C(=O)N(c5ccc(F)cc5)C(=O)C43)n2)cc1 (centres undefined) has an RP-LC retention time of 1070 s.

Compound O=C1CC(c2nc(-c3ccc(Br)cc3)no2)CN1c1ccccc1 (centres undefined) has an RP-LC retention time of 1080 s.

Compound COc1ccc(-c2noc(C3(NC(=O)c4ccc(F)c(Cl)c4)CCCCC3)n2)cc1 has an RP-LC retention time of 685 s.

CCCN1C(=O)c2cc(S(=O)(=O)Nc3ccccc3C)ccc2Oc2cccnc21 showed an RP-LC retention time of 1080 s.

In the case of COc1cccc(C(O)CN2CCN(c3ccccn3)CC2)c1 (centres undefined), the RP-LC retention time is reported as 554 s.

CN(CC1CCOC1)C(=O)Nc1ccccc1F (centres undefined) gave an RP-LC retention time of 656 s.

In the case of CCOc1ccc(CNC(=O)c2cc3c(-c4cccs4)nn(-c4ccccc4)c3n2CC)cc1, the RP-LC retention time is reported as 1240 s.

For CC(C)CC(NC(=O)C1CCC(C)CC1)C(=O)N1CCN(c2ccccn2)CC1 (centres undefined), the RP-LC retention time was 693 s.

With Cc1nc2cc(-c3noc(-c4sc(C)nc4C)n3)ccc2o1 the RP-LC retention time was 951 s.

CCc1cc(-c2csc(S(=O)(=O)N3CCc4ccccc4C3)c2)on1 gave an RP-LC retention time of 1110 s.

In the case of COc1ccc(CCNC[C@H](O)c2ccc(O)cc2)cc1OC, the RP-LC retention time is reported as 656 s.

CCN(CC)C(=O)N1CCC(c2noc(-c3ccccc3)n2)C1 (centres undefined) gave an RP-LC retention time of 892 s.

In the case of Cc1cc(S(=O)(=O)N2CCC(n3cnnc3C)CC2)ccc1F, the RP-LC retention time is reported as 702 s.

For O=C(CCc1c(-c2ccccc2)nc2ccccn12)Nc1ccc(Br)cc1, the RP-LC retention time was 725 s.

C=CCn1c(C)c(CC(=O)Nc2ccc(C)cc2)c(=O)n2nc(-c3ccc(C)cc3)nc12 showed an RP-LC retention time of 991 s.

Compound c1cc2nnc(C3CCC3)n2nc1N1CCCC1 has an RP-LC retention time of 920 s.

Compound CC1CCN(C(=O)c2ccc3c(c2)CC(=O)N3C)CC1 has an RP-LC retention time of 692 s.

In the case of CC(=O)Nc1ccc(NC(=O)[C@H]2C[C@H]3CCCN3[C@@]23C(=O)N(C)c2ccccc23)cc1, the RP-LC retention time is reported as 572 s.

With O=c1c2nc(-c3ccc(Cl)cc3)cn2ccn1-c1ccc(F)c(F)c1 the RP-LC retention time was 891 s.

CCNC(=O)Nc1ccc2c(c1)CN(Cc1sccc1C)CCO2 showed an RP-LC retention time of 608 s.

CN(C)CCCN(C(=O)c1ccc(Br)s1)c1nc2c(F)cccc2s1 showed an RP-LC retention time of 617 s.

Work on CC1CN(C(=O)CSc2nc(-c3ccco3)cc(C(F)(F)F)n2)CC(C)O1 (centres undefined) yielded an RP-LC retention time of 952 s.

Cc1ccn2c(NC(=O)c3c(F)cccc3Cl)c(-c3ccc(F)cc3)nc2c1 gave an RP-LC retention time of 701 s.

With COc1cc(NS(=O)(=O)c2ccc3c(c2)C(=O)N(C)c2ncccc2O3)cc(OC)c1 the RP-LC retention time was 868 s.

NS(=O)(=O)c1ccc(CCNC(=O)Cc2cc(-c3cccs3)on2)cc1 gave an RP-LC retention time of 669 s.

Cc1nc2cc(N3CC(C(=O)NCc4cccc(Cl)c4)CC3=O)ccc2o1 (centres undefined) gave an RP-LC retention time of 734 s.

Work on CCOC(=O)C1=C(C)NC2=C(C(=O)C(C(=O)OC)C(C)C2)C1c1cccc(OC)c1 (centres undefined) yielded an RP-LC retention time of 846 s.

Work on O=c1oc2cc(O)cc(O)c2c2c1CCCC2 yielded an RP-LC retention time of 708 s.

CSc1nnc(Cc2nnc(SC)n2-c2ccccc2)n1-c1ccccc1 gave an RP-LC retention time of 784 s.

Compound CC1CC(C)CN(CCCNC(=O)Cn2ncc3c4ccccc4n(C)c3c2=O)C1 (centres undefined) has an RP-LC retention time of 659 s.

Compound CCn1c(C)c(CCC(=O)NCCOC)c(=O)n2nc(-c3ccccc3)nc12 has an RP-LC retention time of 665 s.

For COc1ncc(C(=O)NCc2ccccc2C(F)(F)F)cn1, the RP-LC retention time was 783 s.

For O=C(/C=C/c1ccccc1)Nc1cccc(-c2nnc3n2CCCC3)c1, the RP-LC retention time was 708 s.

With CC(C)N1CCN(C(=O)c2ccc(CN3CCN(Cc4ccccc4)C(=O)C3=O)cc2)CC1 the RP-LC retention time was 610 s.

Compound O=C(c1cccc(N2CCNC(c3ccccc3)C2)n1)N1CCCCC1 (centres undefined) has an RP-LC retention time of 615 s.

For COc1cc(NS(=O)(=O)c2ccc(NC(=O)c3ccc(Cl)cc3)cc2)nc(OC)n1, the RP-LC retention time was 868 s.

Compound CC(=O)N1CCc2ccccc2C1C(=O)NCc1cccc(C(F)(F)F)c1 (centres undefined) has an RP-LC retention time of 838 s.

Work on CCC(=O)Nc1nc(-c2ccc3c(c2)N(C)C(=O)CO3)cs1 yielded an RP-LC retention time of 752 s.

In the case of O=C1CCCc2cc(S(=O)(=O)N3CCC(C(=O)NCc4cccs4)CC3)ccc2N1, the RP-LC retention time is reported as 695 s.
